In ChEMBL document CHEMBL1777705, “Naphthol derivatives as TRPV1 inhibitors for the treatment of urinary incontinence” (Bioorg Med Chem Lett, 2011):
Converted amounts (≈) assume the structure as drawn.

Key:
[1] = biological target: Transient receptor potential cation channel subfamily V member 1 (Homo sapiens, UniProt Q8NER1); assay: Antagonist activity at human TRPV1 expressed in CHO cells co-expressing aequorin and CRE-luciferase reporter gene assessed as inhibition of capsaicin-induced calcium flux; assay type: functional, cell-based
[2] = biological target: Transient receptor potential cation channel subfamily V member 1 (Rattus norvegicus, UniProt O35433); assay: Antagonist activity at rat TRPV1 expressed in CHO cells co-expressing aequorin and CRE-luciferase reporter gene assessed as inhibition of capsaicin-induced calcium flux; assay type: functional, cell-based
Rattus norvegicus [3] = assay: Dose normalized AUC in po dosed rat; assay type: ADME, organism-based; conditions: in vivo
Rattus norvegicus [4] = assay: Inhibition of capsaicin-induced micturition frequency in Sprague-Dawley rat overactive bladder model at 3 mg/kg, iv relative to control; assay type: functional
Rattus norvegicus [5] = assay: Inhibition of capsaicin-induced micturition frequency in Sprague-Dawley rat overactive bladder model at 10 mg/kg, iv relative to control; assay type: functional
Rattus norvegicus [6] = assay: Inhibition of cyclophosphamide-induced voiding frequency in iv dosed Sprague-Dawley rat cystitis model; assay type: functional, organism-based
[7] = Solubility of the compound; assay type: physicochemical
Rattus norvegicus [8] = assay: Inhibition of cyclophosphamide-induced bladder capacity in iv dosed Sprague-Dawley rat cystitis model; assay type: functional, organism-based
[9] = Oral bioavailability in Sprague-Dawley rat; assay type: ADME, organism-based; conditions: in vivo

Transient receptor potential cation channel subfamily V member 1 (Homo sapiens, UniProt Q8NER1), sequence (Q8NER1 whole entry): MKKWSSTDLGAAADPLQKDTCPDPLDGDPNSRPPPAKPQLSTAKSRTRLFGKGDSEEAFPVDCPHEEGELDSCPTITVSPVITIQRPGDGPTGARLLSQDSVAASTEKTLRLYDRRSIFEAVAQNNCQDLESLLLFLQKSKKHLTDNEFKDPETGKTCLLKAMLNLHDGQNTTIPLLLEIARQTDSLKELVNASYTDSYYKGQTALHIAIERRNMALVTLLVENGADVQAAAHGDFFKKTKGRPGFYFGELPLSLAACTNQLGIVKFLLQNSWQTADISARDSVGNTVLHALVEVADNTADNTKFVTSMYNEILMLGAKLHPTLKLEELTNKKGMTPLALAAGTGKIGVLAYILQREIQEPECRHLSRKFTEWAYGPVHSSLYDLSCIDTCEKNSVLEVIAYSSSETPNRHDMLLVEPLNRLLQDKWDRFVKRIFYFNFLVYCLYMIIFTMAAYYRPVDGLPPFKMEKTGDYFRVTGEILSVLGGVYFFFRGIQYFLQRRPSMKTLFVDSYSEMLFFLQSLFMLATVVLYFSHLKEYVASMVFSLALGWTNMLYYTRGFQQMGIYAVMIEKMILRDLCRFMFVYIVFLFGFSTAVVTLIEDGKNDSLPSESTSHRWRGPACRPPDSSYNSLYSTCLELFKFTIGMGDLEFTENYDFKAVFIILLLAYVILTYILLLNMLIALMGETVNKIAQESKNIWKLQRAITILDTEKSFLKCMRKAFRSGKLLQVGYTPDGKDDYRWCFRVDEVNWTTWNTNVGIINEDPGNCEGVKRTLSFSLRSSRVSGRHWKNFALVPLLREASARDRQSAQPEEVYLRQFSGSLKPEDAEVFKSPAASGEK
Transient receptor potential cation channel subfamily V member 1 (Rattus norvegicus, UniProt O35433), sequence (O35433 whole entry): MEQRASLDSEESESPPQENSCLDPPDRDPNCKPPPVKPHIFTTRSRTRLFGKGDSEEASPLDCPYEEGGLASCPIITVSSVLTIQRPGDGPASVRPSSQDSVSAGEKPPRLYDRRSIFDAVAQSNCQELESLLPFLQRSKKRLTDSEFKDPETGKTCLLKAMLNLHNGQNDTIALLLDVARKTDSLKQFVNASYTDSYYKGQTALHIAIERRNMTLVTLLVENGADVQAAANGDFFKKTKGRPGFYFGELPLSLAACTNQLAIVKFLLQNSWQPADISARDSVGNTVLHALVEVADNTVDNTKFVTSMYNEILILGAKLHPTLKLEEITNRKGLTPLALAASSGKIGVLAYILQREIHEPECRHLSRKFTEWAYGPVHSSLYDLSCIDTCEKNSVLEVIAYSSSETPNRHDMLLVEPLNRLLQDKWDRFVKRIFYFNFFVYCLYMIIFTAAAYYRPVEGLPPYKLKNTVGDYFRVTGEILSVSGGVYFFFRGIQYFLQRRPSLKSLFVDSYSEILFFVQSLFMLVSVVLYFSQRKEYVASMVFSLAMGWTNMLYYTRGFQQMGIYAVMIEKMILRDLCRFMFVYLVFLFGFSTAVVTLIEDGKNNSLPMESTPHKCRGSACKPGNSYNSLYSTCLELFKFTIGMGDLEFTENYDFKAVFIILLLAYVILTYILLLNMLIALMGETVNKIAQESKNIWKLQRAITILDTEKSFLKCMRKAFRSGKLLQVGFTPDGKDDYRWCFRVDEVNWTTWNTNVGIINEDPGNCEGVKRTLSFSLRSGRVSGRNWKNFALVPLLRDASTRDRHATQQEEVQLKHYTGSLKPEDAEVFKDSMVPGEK

SMILES | IC50 [1] [nM] | IC50 [2] [nM] | further results
O=C(Nc1ccc(Cl)c(C(F)(F)F)c1)Nc1c(Cl)ccc2ccc(O)cc12 | 3.4 | 4.5 | AUC (Rattus norvegicus [3]): 3 ng·h/mL
CC(=O)c1cccc(NC(=O)Nc2cccc3ccc(O)cc23)c1 | 28 | 39 | –
O=C(Nc1cccc(C(F)(F)F)c1)Nc1cccc2ccc(O)cc12 | 3.5 | 4.5 | –
O=C(Nc1ccc(Cl)c(C(F)(F)F)c1)Nc1c(Cl)c(Br)cc2ccc(O)cc12 | – | – | inhibition in vivo at 3 mg/kg (Rattus norvegicus [4]): 88%; AUC (Rattus norvegicus [3]): 477 ng·h/mL
O=C(Nc1ccc(Cl)cc1Cl)Nc1cccc2ccc(O)cc12 | 12 | 16 | –
O=C(Cc1cccc(F)c1)Nc1cccc2ccc(O)cc12 | > 1000 | – | –
O=C(Nc1ccc(Cl)c(C(F)(F)F)c1)Nc1c(Br)c(Br)cc2ccc(O)cc12 | – | – | inhibition in vivo at 10 mg/kg (Rattus norvegicus [5]): 65%; inhibition in vivo at 3 mg/kg (Rattus norvegicus [4]): 11%; AUC (Rattus norvegicus [3]): 596 ng·h/mL
O=C(Nc1ccc(Cl)c(C(F)(F)F)c1)Nc1c(Cl)c(Cl)cc2ccc(O)cc12 | – | – | inhibition (Rattus norvegicus [6]): Dose-dependent effect; solubility [7]: 0.03 µg/mL (≈ 0.0667 µM); inhibition in vivo at 10 mg/kg (Rattus norvegicus [5]): 55%; inhibition (Rattus norvegicus [8]): Dose-dependent effect; bioavailability [9]: 3%; AUC (Rattus norvegicus [3]): 84 ng·h/mL
CSc1cccc(NC(=O)Nc2cccc3ccc(O)cc23)c1 | 3.9 | 7.1 | –
COc1ccc2cccc(NC(=O)Nc3ccc(Cl)c(C(F)(F)F)c3)c2c1 | – | – | AUC (Rattus norvegicus [3]): 114 ng·h/mL
COc1cccc(NC(=O)Nc2cccc3ccc(O)cc23)c1 | 8 | 8.6 | –
CCOC(=O)c1cccc(NC(=O)Nc2cccc3ccc(O)cc23)c1 | 1.7 | 1.6 | –

Continued, in another order:

IC50 [1] [nM] | IC50 [2] [nM] | SMILES | further results
5.4 | 4.9 | O=C(Nc1ccc(C(F)(F)F)cc1)Nc1cccc2ccc(O)cc12 | –
520 | 270 | O=C(Nc1cccc(C(=O)O)c1)Nc1cccc2ccc(O)cc12 | –
> 1000 | > 1000 | O=C(NCc1cccc(O)c1)Nc1cccc(F)c1 | –
34 | – | O=C(Cc1cccc2ccc(O)cc12)Nc1ccc(Cl)c(C(F)(F)F)c1 | –
87 | 64 | O=C(Nc1ccccc1C(F)(F)F)Nc1cccc2ccc(O)cc12 | –
7.5 | 14 | O=C(Nc1cccc([N+](=O)[O-])c1)Nc1cccc2ccc(O)cc12 | –
